Data as given in patent US20210267205A1, “METHOD OF CONTROLLING WEEDS” (SUMITOMO CHEMICAL COMPANY, LIMITED, priority 2018, published 2021).

What was measured:
Format in all cases: in vivo
Echinochloa crus-galli [1] = assay: Herbicidal effect, soil spray the day after seeding, pot test (Example 1153); conditions: 100 L per 10000 m^2, 30 PSI, 10 days in greenhouse, scale of 0 to 100
Description: (§1) Echinochloa crus-galli was seeded on a plastic pot filled with a soil. On the next day, an aqueous diluted liquid of trifludimoxazin (prepared by diluting an emuslfiable concentrate of trifludimoxazin with water) was uniformly sprayed onto the pot through the nozzles given in Table 1 at the amount of the aqueous diluted liquid of 100 L per 10000 m^2 so that the application rate of trifludimoxazin might be 20 or 10 g per 10000 m^2. The spray pressure was 30 PSI and the spray height (distance between the nozzle outlet and the soil surface of the pot) was 60 cm. The air temperature was 17 degrees Celsius, the wind speed was 2.5 m/s, and the relative humidity was 65% at the timing of application. The sprayed pots were placed in a greenhouse for 10 days to grow Echinochloa crus-galli and then herbicidal effects were evaluated on scale of 0 to 100.

[2] = system: Waterhemp having a Gly210 deletion mutation in PPO2; assay: Herbicidal effect, soil spray the day after seeding, pot test (Example 1156); conditions: 15 g per 10000 m^2; 150 L per 10000 m^2; 30 PSI; 10 days in greenhouse; scale of 0 to 100
Description: as §1, with “Waterhemp having a Gly210 deletion mutation in PPO2 was seeded” for “Echinochloa crus-galli was seeded”, “in Table 4 at the” for “in Table 1 at the”, “liquid of 150 L per” for “liquid of 100 L per”, “might be 15 g per” for “might be 20 or 10 g per”, “to grow waterhemp and then” for “to grow Echinochloa crus-galli and then”, “evaluated on a scale of” for “evaluated on scale of”

[3] = system: Waterhemp having a Gly210 deletion mutation in PPO2; assay: Herbicidal effect, soil spray the day after seeding, pot test (Example 1155); conditions: 10 g per 10000 m^2; 100 L per 10000 m^2; 30 PSI; 10 days in greenhouse; scale of 0 to 100
Description: as §1, with “Waterhemp having a Gly210 deletion mutation in PPO2, was seeded” for “Echinochloa crus-galli was seeded”, “in Table 3 at the” for “in Table 1 at the”, “might be 10 g” for “might be 20 or 10 g”, “to grow waterhemp and then” for “to grow Echinochloa crus-galli and then”, “evaluated on a scale of” for “evaluated on scale of”

Echinochloa crus-galli [4] = assay: Herbicidal effect, soil spray the day after seeding, pot test (Example 1154); conditions: 150 L per 10000 m^2, 30 PSI, 10 days in greenhouse, scale of 0 to 100
Description: as §1, with “in Table 2 at the” for “in Table 1 at the”, “liquid of 150 L per” for “liquid of 100 L per”, “might be 30 or 15” for “might be 20 or 10”, “30 or 15 g per” for “20 or 10 g per”, “evaluated on a scale of” for “evaluated on scale of”

[5] = system: Amaranthus palmeri, waterhemp and ragweeds having mutations in PPO2; assay: Effect on weeds, soil surface application on day of sowing weeds and soybean (Example 2); conditions: 10, 20, 40, 80, or 160 g/ha, 200 L/ha, drift-reducing nozzle TTI11004, examined after 21 days
Description: (§2) Amaranthus palmeri having an Arg128Gly mutation in PPO2, Amaranthus palmeri having an Arg128Met mutation in PPO2, Amaranthus palmeri having a Gly210 deletion mutation in PPO2, Amaranthus palmeri having a Gly399Ala mutation in PPO2, waterhemp having a Gly210 deletion mutation in PP02, ragweeds having Arg128Leu in PP02, and a Roundup Ready 2 Xtend soybean are sown in a plastic pot. On the same day, a compound X is applied to the surface of soil by using a drift-reducing nozzle (TTI11004 manufactured by Teejet Company). The amount of the compound X to be applied is 10, 20, 40, 80, or 160 g/ha and the amount of spray dilution is 200 L/ha. Then, the weeds and soybean are cultivated in a greenhouse to examine the effects on the weeds and phytotoxic effects on the soybean after 21 days.

[6] = system: Amaranthus palmeri, waterhemp and ragweeds having mutations in PPO2; assay: Effect on weeds, foliar treatment 21 days after sowing (Example 3); conditions: 10, 20, 40, 80, or 160 g/ha, 200 L/ha, drift-reducing nozzle TTI11004, examined 14 days after treatment
Description: Amaranthus palmeri having an Arg128Gly mutation in PPO2, Amaranthus palmeri having an Arg128Met mutation in PPO2, Amaranthus palmeri having a Gly210 deletion mutation in PPO2, Amaranthus palmeri having a Gly399A1a mutation in PPO2, waterhemp having a Gly210 deletion mutation in PP02, ragweeds having Arg128Leu in PP02, and a Roundup Ready 2 Xtend soybean are sown in a plastic pot. Then, the weeds and soybean are cultivated in a greenhouse and a compound X is applied to perform foliar treatment by using a drift-reducing nozzle (TTI11004 manufactured by Teejet Company) 21 days after sowing. The amount of the compound X to be applied is 10, 20, 40, 80, or 160 g/ha and the amount of spray dilution is 200 L/ha. Then, the weeds and soybean are further cultivated in a greenhouse to examine the effects on the weeds and phytotoxic effects on the soybean 14 days after treatment.

[7] = system: Amaranthus palmeri, waterhemp and ragweeds having mutations in PPO2; assay: Effect on weeds, soil surface application on day of weed sowing, soybean sown after 7 days (Example 1); conditions: 10, 20, 40, 80, or 160 g/ha, 200 L/ha, drift-reducing nozzle TTI11004, examined after 14 days
Description: as §2, with “in PPO2, and” for “in PP02,”, “in PPO2” for “in PP02, and a Roundup Ready 2 Xtend soybean”, “Then, these” for “Then, the”, “weeds” for “weeds and soybean”, “greenhouse and Roundup Ready 2 Xtend soybean seeds are sown after 7 days,” for “greenhouse”, “after 14” for “after 21”

SMILES | Herbicidal effect on Echinochloa crus-galli, Air induction nozzle (TTI11002) (Echinochloa crus-galli [1]; 10 g per 10000 m^2) | Herbicidal effect on Echinochloa crus-galli, Standard nozzle (Teejet11002) (Echinochloa crus-galli [1]; 10 g per 10000 m^2) | Herbicidal effect on Echinochloa crus-galli, Air induction nozzle (TTI11002) (Echinochloa crus-galli [1]; 20 g per 10000 m^2) | Herbicidal effect on Echinochloa crus-galli, Standard nozzle (Teejet11002) (Echinochloa crus-galli [1]; 20 g per 10000 m^2) | Herbicidal effect on Waterhemp having a Gly210 deletion mutation in PPO2, Air induction nozzle (TTI11004) [2] | Herbicidal effect on Waterhemp having a Gly210 deletion mutation in PPO2, Standard nozzle (Teejet11004) [2] | Herbicidal effect on Waterhemp having a Gly210 deletion mutation in PPO2, Air induction nozzle (TTI11002) [3] | Herbicidal effect on Waterhemp having a Gly210 deletion mutation in PPO2, Pre-orifice nozzle (DG11002) [3] | Herbicidal effect on Waterhemp having a Gly210 deletion mutation in PPO2, Standard nozzle (Teejet11002) [3] | Herbicidal effect on Echinochloa crus-galli, Air induction nozzle (TTI11004) (Echinochloa crus-galli [4]; 15 g per 10000 m^2) | Herbicidal effect on Echinochloa crus-galli, Standard nozzle (Teejet11004) (Echinochloa crus-galli [4]; 15 g per 10000 m^2) | Herbicidal effect on Echinochloa crus-galli, Air induction nozzle (TTI11004) (Echinochloa crus-galli [4]; 30 g per 10000 m^2) | Herbicidal effect on Echinochloa crus-galli, Standard nozzle (Teejet11004) (Echinochloa crus-galli [4]; 30 g per 10000 m^2) | effects on the weeds [5] | effects on the weeds [6] | effects on the weeds [7]
C#CCN1C(=O)C(F)(F)Oc2cc(F)c(-n3c(=O)n(C)c(=S)n(C)c3=O)cc21 [Trifludimoxazin, trifludimoxazin] | 60 | 20 | 80 | 30 | 95 | 60 | 90 | 90 | 50 | 70 | 30 | 90 | 40 |  |  | 
CCOC(=O)COc1ncccc1Oc1cc(-n2c(=O)cc(C(F)(F)F)n(C)c2=O)c(F)cc1Cl [compound X, Ethyl [3-[2-chloro-4-fluoro-5-(1-methyl-6-trifluoromethyl-2,4-dioxo-1,2,3,4-tetrahydropyrimidine-3-yl)phenoxy]-2-pyridyloxy]acetate] |  |  |  |  |  |  |  |  |  |  |  |  |  | valuable effect | valuable effect | valuable effect
